Laboratory results published in ChEMBL document CHEMBL1201862, “PubChem BioAssay data set” (2004).
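Assay format: 96-well plates, 48-hour exposure. GI50 = concentration required for 50% inhibition of growth.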 The source made the active and inactive calls. Cut-off read from the data, not from the text of the source: active = GI50 up to about 1.1 µM and inactive = higher.

How the values were obtained:
Experiment in all cases: NCI-60 cell line screen, 48 h
[1] = tested on: EKVX
[2] = tested on: HCC 2998
[3] = tested on: HCT-15
[4] = tested on: HL-60
[5] = tested on: HOP-92
[6] = tested on: MCF7
[7] = tested on: MDA-MB-231
[8] = tested on: Malme-3M
[9] = tested on: NCI/ADR-RES
[10] = tested on: OVCAR-4
[11] = tested on: OVCAR-8
[12] = tested on: RPMI-8226
[13] = tested on: SF-295
[14] = tested on: SK-MEL-2
[15] = tested on: SNB-75
[16] = tested on: UACC-257
[17] = tested on: Hs-578T
[18] = tested on: SK-OV-3
[19] = tested on: MDA-N

Structure (SMILES) | GI50 [1] | GI50 [2] | GI50 [3] | GI50 [4] | GI50 [5] | GI50 [6] | GI50 [7] | GI50 [8] | GI50 [9] | GI50 [10] | GI50 [11] | GI50 [12] | GI50 [13] | GI50 [14] | GI50 [15] | GI50 [16] | GI50 [17] | GI50 [18] | GI50 [19]
Cn1c(=O)cc(N2CCCC2)[nH]c1=O | > 100 µM (inactive) | > 100 µM (inactive) | > 100 µM | > 100 µM (inactive) | > 100 µM (inactive) | > 100 µM (inactive) | > 100 µM (inactive) | > 100 µM (inactive) | > 100 µM (inactive) | > 100 µM (inactive) | > 100 µM (inactive) | > 100 µM (inactive) | > 100 µM (inactive) | > 100 µM (inactive) | > 100 µM (inactive) | > 100 µM (inactive) | – | – | –
O=C1c2ccccc2C(=O)C2NC(CCCCCSSCCCCCC3=NC4C(=O)c5ccccc5C(=O)C4N3)=NC12 (centres undefined) | > 100 µM (inactive) | – | 40.6 µM | > 100 µM (inactive) | 5.56 µM (inactive) | > 100 µM (inactive) | 96.2 µM (inactive) | – | > 100 µM (inactive) | > 100 µM (inactive) | 45.2 µM (inactive) | > 100 µM (inactive) | 4.57 µM (inactive) | > 100 µM (inactive) | – | 64.3 µM (inactive) | 25.7 µM (inactive) | 50.8 µM (inactive) | –
COc1ccc(C2C3CCc4ccccc4C3=NN2S(=O)(=O)c2cccc(C(=O)O)c2OC)cc1 (centres undefined) | 15 µM (inactive) | – | 0.24 µM | 7.53 µM (inactive) | 15.7 µM (inactive) | 2.19 µM (inactive) | 10.4 µM (inactive) | 13.3 µM (inactive) | 2.81 µM (inactive) | 19.4 µM (inactive) | 23.6 µM (inactive) | 9.55 µM (inactive) | 9.23 µM (inactive) | 15.7 µM (inactive) | – | – | – | 1.8 µM (inactive) | 2.52 µM (inactive)
NN/C(=N\c1ccc(Cl)cc1)NS(=O)(=O)c1ccc(S(=O)(=O)c2ccccc2)s1 | 11 µM (inactive) | – | 22 µM | 24.2 µM (inactive) | 18.6 µM (inactive) | 22.2 µM (inactive) | 33.3 µM (inactive) | – | 18.5 µM (inactive) | 21.1 µM (inactive) | 30.3 µM (inactive) | 21.2 µM (inactive) | 8.79 µM (inactive) | 19.1 µM (inactive) | – | 18 µM (inactive) | – | 71.9 µM (inactive) | 13.7 µM (inactive)
Cc1cc2c(c(/C=N/c3ccccc3O)c1)OC1(C=C2)Oc2ccccc2C(=O)N1C (centres undefined) | 14 µM (inactive) | 15.8 µM (inactive) | 15.9 µM | 27 µM (inactive) | 11.8 µM (inactive) | – | 16.3 µM (inactive) | – | 17.3 µM (inactive) | 23.1 µM (inactive) | 17.7 µM (inactive) | 21.2 µM (inactive) | 24.7 µM (inactive) | 19.5 µM (inactive) | 18.6 µM (inactive) | 14.1 µM (inactive) | 11.6 µM (inactive) | 24.4 µM (inactive) | 28.2 µM (inactive)
Cn1cc(S(=O)(=O)NC(=O)Nc2ccc(Cl)cc2)c(=O)c2ccc(F)cc21 | > 100 µM (inactive) | > 100 µM (inactive) | > 100 µM | > 100 µM (inactive) | > 100 µM (inactive) | – | > 100 µM (inactive) | > 100 µM (inactive) | > 100 µM (inactive) | > 100 µM (inactive) | > 100 µM (inactive) | > 100 µM (inactive) | > 100 µM (inactive) | > 100 µM (inactive) | > 100 µM (inactive) | > 100 µM (inactive) | > 100 µM (inactive) | > 100 µM (inactive) | 64.3 µM (inactive)
CS(=O)(=O)c1nc(-c2cc3c(c(S(C)(=O)=O)n2)CCC3)cc2c1CCC2 | > 100 µM (inactive) | > 100 µM (inactive) | > 100 µM | > 100 µM (inactive) | – | – | 24.4 µM (inactive) | – | > 100 µM (inactive) | > 100 µM (inactive) | 74.5 µM (inactive) | > 100 µM (inactive) | > 100 µM (inactive) | > 100 µM (inactive) | 22.4 µM (inactive) | > 100 µM (inactive) | – | > 100 µM (inactive) | > 100 µM (inactive)
NC(C(=O)OC(=O)c1ccccc1)C(=O)OC(=O)c1ccccc1 | > 100 µM (inactive) | – | > 100 µM | – | – | > 100 µM (inactive) | > 100 µM (inactive) | > 100 µM (inactive) | > 100 µM (inactive) | > 100 µM (inactive) | > 100 µM (inactive) | > 100 µM (inactive) | > 100 µM (inactive) | > 100 µM (inactive) | > 100 µM (inactive) | > 100 µM (inactive) | 59.3 µM (inactive) | – | > 10 µM (inactive)
CCOC(=O)c1ccc(-n2nnc(C(N)=O)c2O)cc1 | > 100 µM (inactive) | > 100 µM (inactive) | > 100 µM | – | – | > 100 µM (inactive) | > 100 µM (inactive) | > 100 µM (inactive) | > 100 µM (inactive) | > 100 µM (inactive) | > 100 µM (inactive) | > 100 µM (inactive) | > 100 µM (inactive) | > 100 µM (inactive) | > 100 µM (inactive) | > 100 µM (inactive) | > 100 µM (inactive) | > 100 µM (inactive) | > 100 µM (inactive)
CCC(CN(C)C)C(=O)c1ccco1 (centres undefined) | > 100 µM (inactive) | > 100 µM (inactive) | > 100 µM | – | 23 µM (inactive) | 47.9 µM (inactive) | > 100 µM (inactive) | 41.4 µM (inactive) | > 100 µM (inactive) | > 100 µM (inactive) | > 100 µM (inactive) | 68.5 µM (inactive) | > 100 µM (inactive) | > 100 µM (inactive) | > 100 µM (inactive) | > 100 µM (inactive) | 98.6 µM (inactive) | > 100 µM (inactive) | –
CCC(C)[C@H](NC(=O)N[C@H](C)c1ccccc1)C(=O)OC (some centres undefined) | > 100 µM (inactive) | > 100 µM (inactive) | > 100 µM | > 100 µM (inactive) | > 100 µM (inactive) | > 100 µM (inactive) | > 100 µM (inactive) | – | – | > 100 µM (inactive) | > 100 µM (inactive) | > 100 µM (inactive) | > 100 µM (inactive) | > 100 µM (inactive) | > 100 µM (inactive) | > 100 µM (inactive) | – | > 100 µM (inactive) | > 100 µM (inactive)
COc1ccc(C(=O)/C=C/c2ccc(OCCCOc3ccc(/C=C/C(=O)c4ccc(OC)cc4)cc3)cc2)cc1 | > 100 µM (inactive) | > 100 µM (inactive) | > 100 µM | > 100 µM (inactive) | – | > 100 µM (inactive) | > 100 µM (inactive) | – | > 100 µM (inactive) | 60.7 µM (inactive) | > 100 µM (inactive) | 21.8 µM (inactive) | > 100 µM (inactive) | > 100 µM (inactive) | 45.4 µM (inactive) | > 100 µM (inactive) | > 100 µM (inactive) | > 100 µM (inactive) | > 100 µM (inactive)
O=c1[nH]nc(Nc2ccc(Cl)cc2)c2nnn(-c3ccc([N+](=O)[O-])cc3)c12 | 30.6 µM (inactive) | 15.2 µM (inactive) | 14.4 µM | 98.6 µM (inactive) | 14.5 µM (inactive) | 16.6 µM (inactive) | 42.4 µM (inactive) | 26.1 µM (inactive) | 23.1 µM (inactive) | 23.8 µM (inactive) | 16.2 µM (inactive) | 10.7 µM (inactive) | 25.3 µM (inactive) | 24.2 µM (inactive) | 39.8 µM (inactive) | 34.8 µM (inactive) | – | – | –
CCCCCCCC1(N=[N+]=[N-])C(=O)c2ccccc2N(C)C1=O (centres undefined) | > 100 µM (inactive) | > 100 µM (inactive) | > 100 µM | 54.1 µM (inactive) | 22.5 µM (inactive) | > 100 µM (inactive) | > 100 µM (inactive) | > 100 µM (inactive) | 35.6 µM (inactive) | 87.3 µM (inactive) | 86.5 µM (inactive) | 56.1 µM (inactive) | > 100 µM (inactive) | – | > 100 µM (inactive) | 57.8 µM (inactive) | > 100 µM (inactive) | > 100 µM (inactive) | –
COP(=O)(OC)C(O)/C=C(\Cl)c1ccc(Cl)cc1 (centres undefined) | > 100 µM (inactive) | – | 25.9 µM | 32.9 µM (inactive) | 18.9 µM (inactive) | 96.4 µM (inactive) | 43.8 µM (inactive) | > 100 µM (inactive) | 23.1 µM (inactive) | 37.2 µM (inactive) | 23.9 µM (inactive) | 25.6 µM (inactive) | > 100 µM (inactive) | > 100 µM (inactive) | > 100 µM (inactive) | 28.4 µM (inactive) | > 100 µM (inactive) | > 100 µM (inactive) | –
O=c1c(C(c2ccc(/C=C/c3ccccc3)cc2)c2c(O)oc3ccccc3c2=O)c(O)oc2ccccc12 | 28.6 µM (inactive) | 23.3 µM (inactive) | 44 µM | 49.3 µM (inactive) | 23.1 µM (inactive) | – | 28.7 µM (inactive) | 21.6 µM (inactive) | 24.9 µM (inactive) | 35.6 µM (inactive) | 20.2 µM (inactive) | 27.2 µM (inactive) | – | 34.8 µM (inactive) | 19.7 µM (inactive) | 53.7 µM (inactive) | 26.8 µM (inactive) | – | 21.8 µM (inactive)
O=C1/C(=C/c2cccs2)NC(=S)N1CN1CCOCC1 | > 100 µM (inactive) | – | > 100 µM | – | > 100 µM (inactive) | > 100 µM (inactive) | > 100 µM (inactive) | – | > 100 µM (inactive) | – | > 100 µM (inactive) | > 100 µM (inactive) | > 100 µM (inactive) | > 100 µM (inactive) | > 100 µM (inactive) | 29 µM (inactive) | > 100 µM (inactive) | > 100 µM (inactive) | > 100 µM (inactive)
